Test results taken from US8722896B2, “Prokineticin receptor antagonists and uses thereof” (The Regents of the University of California, priority 2008, dated 2014).
pKi: −log10 of the molar value.

Molecular target: recombinant PKR1 (Homo sapiens (Human), UniProt Q8TCW9)
Test: Aequorin-based Ca2+ mobilization antagonist assay, CHO cells expressing PKR1
Assay type: cell-based
Conditions: not given
Experimental: An aequorin-based luminescent assay for calcium mobilization was used to measure mobilization of intracellular Ca^2+ (Bullock et al., Mol Pharmacol 65, 582-588, 2004). Chinese hamster ovary (CHO) cells stably expressing photoprotein aequorin and recombinant PKR1 or PKR2 were tested by this method. Briefly, the cells were charged in Opti-MEM (Invitrogen) containing 8 μM of coelenterazine cp at 37° C. for 2 hours. Cells were detached by brief typsinization and maintained in Hank's Balanced Salt Solution (HBSS) plus 10 mM HEPES (pH7.5) and 0.1% BSA at about 5×10^5 cells/ml. Luminescence measurements were made using a Berthold luminometer.
All compounds were diluted in HBSS plus 10 mM HEPES (pH7.5) and 0.1% BSA. To test the agonist activity, 100 μl of cells were injected into the tubes with 20 μl of compounds. For antagonist assays, 80 μl cells were incubated in the tubes with 20 μl different concentrations of antagonists at room temperature for 20 minutes, and then 100 μl of recombinant PK2 were injected. The IC50 obtained from the assays were then converted to Ki values using the formula: IC50/(1+[PK2]/EC50PK2).
The following compounds were prepared using the above synthetic routes and protocols by varying the starting materials, reagents or conditions used. The requisite reagents were either commercially available, described in the literature, or readily synthesized by one skilled in the art. The potency of these compounds in antagonizing PK2-stimulated calcium mobilization were tested in Chinese hamster ovary (CHO) cells that stably express recombinant PKR1 or PKR2.

Row | SMILES | pKi
1 | CC(C)CN(Cc1cc(Cl)c2c(c1)CCCCO2)C(=O)[C@@H]1CCCN(Cc2cccc3ccn(C)c23)C1 | 8.03
2 | CC(C)CN(Cc1cc(Cl)c2c(c1)CCCCO2)C(=O)[C@@H]1CCN(Cc2cccc3c2ccn3C)C1 | 7.94
3 | CC(C)CN(Cc1cc(Cl)c2c(c1)OCCCO2)C(=O)C(C)CNCc1cccc2c1OCO2 (centres unmarked) | 7.35
4 | CC(C)CN(Cc1cc(Cl)c2c(c1)OCCCO2)C(=O)C(C)CNCc1cccc2ccn(C)c12 (centres unmarked) | 7.78
5 | CC(C)CN(Cc1cc(Cl)c2c(c1)OCCCO2)C(=O)[C@@H]1CCCN(Cc2cccc3[nH]ccc23)C1 | 7.42
6 | CC(C)CN(Cc1cc(Cl)c2c(c1)OCCCO2)C(=O)[C@@H]1CCCN(Cc2cccc3c2NCC3)C1 | 8.48
7 | CC(C)CN(Cc1cc(Cl)c2c(c1)OCCCO2)C(=O)[C@@H]1CCN(Cc2ccc(F)c(N)c2)C1 | 7.62
8 | CC(C)CN(Cc1cc(Cl)c2c(c1)OCCCO2)C(=O)[C@@H]1CCN(Cc2cccc(N)c2)C1 | 6.88
9 | CC(C)CN(Cc1cc(Cl)c2c(c1)OCCCO2)C(=O)[C@H](C)CNCc1cc(F)c(F)cc1F | 6.59
10 | CCc1c(C)cccc1CN1CC[C@@H](C(=O)N(Cc2cc(Cl)c3c(c2)OCCCO3)CC(C)C)C1 | 6.65
11 | CCc1cccc(CN2CC[C@@H](C(=O)N(Cc3cc(Cl)c4c(c3)OCCCO4)CC(C)C)C2)c1 | 7.05
12 | COc1ccccc1CN1CCC[C@@H](C(=O)N(Cc2cc(Cl)c3c(c2)OCCCO3)CC(C)C)C1 | 7.41
13 | COc1ccccc1CN1CCC[C@@H](C(=O)N(Cc2ccc3c(c2)OCCCO3)CC(C)C)C1 | 7.41
14 | COc1ccccc1CN1CC[C@@H](C(=O)N(Cc2ccc3c(c2)OCCCO3)CC(C)C)C1 | 7.89
15 | Cc1cccc(CN2CCC[C@@H](C(=O)N(Cc3cc(Cl)c4c(c3)OCCCO4)CC(C)C)C2)c1 | 7.53
16 | CC(C)CN(Cc1cc(Cl)c2c(c1)CCCCO2)C(=O)C1CN(Cc2cccc3cc[nH]c23)CCO1 (racemic) | 8.40
17 | CC(C)CN(Cc1cc(Cl)c2c(c1)CCCCO2)C(=O)C1CN(Cc2cccc3ccn(C)c23)CCO1 (racemic) | 8.00
18 | CC(C)CN(Cc1cc(Cl)c2c(c1)OCCCO2)C(=O)C(C)CNCc1cccc2c1OCCO2 (racemic) | 7.23
19 | CC(C)CN(Cc1cc(Cl)c2c(c1)OCCCO2)C(=O)C1CCN(Cc2ccccc2)O1 (racemic) | 5.66
20 | CC(C)CN(Cc1cc(Cl)c2c(c1)OCCCO2)C(=O)C1CN(Cc2cccc3c2ccn3C)CCO1 (racemic) | 7.90
21 | CC(C)CN(Cc1cc(Cl)c2c(c1)OCCCO2)C(=O)C1CN(Cc2cccc3ccn(C)c23)CCO1 (racemic) | 7.61
22 | CCc1c(C)cccc1CNCC(C)C(=O)N(Cc1cc(Cl)c2c(c1)OCCCO2)CC(C)C (racemic) | 6.65
23 | Cc1ccc(C)c(CN2CCOC(C(=O)N(Cc3cc(Cl)c4c(c3)OCCCO4)CC(C)C)C2)c1 (racemic) | 7.08
24 | Cc1cccc(C)c1CNCC(C)C(=O)N(Cc1cc(Cl)c2c(c1)OCCCO2)CC(C)C (racemic) | 7.36
25 | Cc1cccc(CNCC(C)C(=O)N(Cc2cc(Cl)c3c(c2)OCCCO3)CC(C)C)c1 (racemic) | 7.35
26 | Cc1cccc(CNCC(C)C(=O)N(Cc2cc(Cl)c3c(c2)OCCCO3)CC(C)C)c1C (racemic) | 7.89
27 | Cc1ccccc1CN1CCOC(C(=O)N(Cc2cc(Cl)c3c(c2)OCCCO3)CC(C)C)C1 (racemic) | 7.43
28 | Cc1ccccc1CNCC(C)C(=O)N(Cc1cc(Cl)c2c(c1)OCCCO2)CC(C)C (racemic) | 7.71

Same assay, conditions: antagonism of PK2-stimulated calcium mobilization in CHO cells; Ki = IC50/(1+[PK2]/EC50PK2); read-out: Ki for PKR1

Row | SMILES | pKi
29 | COc1cc(F)ccc1CNCC(C)C(=O)N(Cc1cc(Cl)c2c(c1)OCCCO2)CC(C)C (racemic) [(±)-2-Methyl-3-((2-methoxy-4-fluoro)benzylamino)-N-(9-chloro-3,4-dihydro-2H-1,5-benzodioxepin-7-ylmethyl)-N-isobutylpropanamide] | 7.30
30 | COc1cc(CNCC(C)C(=O)N(Cc2cc(Cl)c3c(c2)OCCCO3)CC(C)C)ccc1F (racemic) [(±)-2-Methyl-3-((3-methoxy-4-fluoro)benzylamino)-N-(9-chloro-3,4-dihydro-2H-1,5-benzodioxepin-7-ylmethyl)-N-isobutylpropanamide] | 7.94
31 | CC(=O)Oc1cccc(CN2CCOC(C(=O)N(Cc3cc(Cl)c4c(c3)OCCCO4)CC(C)C)C2)c1 (racemic) [(±)-(3R)-1-(3-acetoxybenzyl)-N-(9-chloro-3,4-dihydro-2H-1,5-benzodioxepin-7-ylmethyl)-N-isobutylmorpholine-3-carboxamide] | 8.07
32 | CC(C)CN(Cc1cnc2c(c1)OCCCO2)C(=O)C1CCCN(Cc2cccc3cc[nH]c23)C1 (single isomer, unassigned; (-)) | 6.98
33 | CC(=O)Oc1cccc(CN2CCC[C@@H](C(=O)N(Cc3cc(Cl)c4c(c3)OCCCO4)CC(C)C)C2)c1 [(−)-(3R)-1-(3-acetoxybenzyl)-N-(9-chloro-3,4-dihydro-2H-1,5-benzodioxepin-7-ylmethyl)-N-isobutylpiperidine-3-carboxamide] | 6.97
34 | COc1cc(F)ccc1CN1CCC[C@@H](C(=O)N(Cc2cc(Cl)c3c(c2)OCCCO3)CC(C)C)C1 [(−)-(3R)-1-(4-Fluoro-2-methoxybenzyl)-N-(9-chloro-3,4-dihydro-2H-1,5-benzodioxepin-7-ylmethyl)-N-isobutylpiperidine-3-carboxamide] | 7.19
35 | COc1cc(F)ccc1CN1CC[C@@H](C(=O)N(Cc2cc(Cl)c3c(c2)OCCCO3)CC(C)C)C1 [(−)-(3R)-1-(4-Fluoro-2-methoxybenzyl)-N-(9-chloro-3,4-dihydro-2H-1,5-benzodioxepin-7-ylmethyl)-N-isobutylpyrrolidine-3-carboxamide] | 8.11
36 | COc1cc(CN2CCC[C@@H](C(=O)N(Cc3cc(Cl)c4c(c3)OCCCO4)CC(C)C)C2)ccc1F [(−)-(3R)-1-(4-Fluoro-3-methoxybenzyl)-N-(9-chloro-3,4-dihydro-2H-1,5-benzodioxepin-7-ylmethyl)-N-isobutylpiperidine-3-carboxamide] | 8.06
37 | COc1cc(CN2CC[C@@H](C(=O)N(Cc3cc(Cl)c4c(c3)OCCCO4)CC(C)C)C2)ccc1F [(−)-(3R)-1-(4-Fluoro-3-methoxybenzyl)-N-(9-chloro-3,4-dihydro-2H-1,5-benzodioxepin-7-ylmethyl)-N-isobutylpyrrolidine-3-carboxamide] | 8.02
38 | CC(C)CN(Cc1cc(Cl)c2c(c1)OCCCO2)C(=O)[C@@H]1CCCN(Cc2cccc3c2N(C)CC3)C1 [(−)-(3R)-1-(N-methyl-indolin-7-ylmethyl)-N-(9-chloro-3,4-dihydro-2H-1,5-benzodioxepin-7-ylmethyl)-N-isobutylpiperidine-3-carboxamide] | 7.06
39 | CC(C)CN(Cc1cc(Cl)c2c(c1)OCC(F)(F)CO2)C(=O)[C@@H]1CCN(Cc2ccccc2)C1 [(−)-(3R)-1-Benzyl-N-(9-chloro-3,3-difluoro-3,4-dihydro-2H-1,5-benzodioxepin-7-ylmethyl)-N-isobutylpyrrolidine-3-carboxamide] | 6.65

Tested on: not listed separately
Test: Glucose tolerance test (GTT), mice fed regular chow
Assay type: in vivo
Conditions: 0, 1, 4, 12 and 40 mg/kg of body weight (FIG. 1B)
Experimental: (§1) The compound (3R)-1-Benzyl-N-(9-chloro-3,4-dihydro-2H-1,5-benzodioxepin-7-ylmethyl)-N-isobutyl pyrrolidine-3-carboxamide (3Cl-R-PLP) was dissolved in PEG-400 and then resuspended in water with 8% final concentration of PEG-400.8% PEG-400 in water without drug was used as vehicle. Mice were fed with regular chow. Drug or vehicle was gavaged to mice that were fasted overnight. Two hours later, glucose (2 g/kg of body weight) was injected i.p. and whole venous blood obtained from the tail vein at 0, 15, 30, 90 and 120 min after the injection was measured for glucose by using an automatic glucometer (one Touch, Lifescan, Daly, Calif.).

Row | SMILES | dose dependence of performance in GTT
40 | CC(C)CN(Cc1cc(Cl)c2c(c1)OCCCO2)C(=O)[C@@H]1CCN(Cc2ccccc2)C1 [Example 15, (3R)-1-Benzyl-N-(9-chloro-3,4-dihydro-2H-1,5-benzodioxepin-7-ylmethyl)-N-isobutyl pyrrolidine-3-carboxamide] | dose-dependent effect

Same assay, conditions: 4 mg/kg of body weight, gavage 2 h before glucose 2 g/kg i.p., fasted mice, regular chow (FIG. 1A)

Row | SMILES | glucose clearance in GTT
41 | CC(C)CN(Cc1cc(Cl)c2c(c1)OCCCO2)C(=O)[C@@H]1CCN(Cc2ccccc2)C1 [Example 15, (3R)-1-Benzyl-N-(9-chloro-3,4-dihydro-2H-1,5-benzodioxepin-7-ylmethyl)-N-isobutyl pyrrolidine-3-carboxamide] | improved glucose clearance significantly

Tested on: not listed separately
Test: GTT in mice fed high-fat diet (diet-induced hyperglycemia)
Assay type: in vivo
Conditions: 40 mg/kg body weight, mice on high fat diet 8 weeks (FIG. 2)
Experimental: as §1
High fat diet was fed to mice for 8 weeks to induced diet-induced hyperglycemia. GTT test was carried out as described earlier.

Row | SMILES | glucose clearance in GTT
42 | CC(C)CN(Cc1cc(Cl)c2c(c1)OCCCO2)C(=O)[C@@H]1CCN(Cc2ccccc2)C1 [Example 15, (3R)-1-Benzyl-N-(9-chloro-3,4-dihydro-2H-1,5-benzodioxepin-7-ylmethyl)-N-isobutyl pyrrolidine-3-carboxamide] | significantly improved glucose clearance

Tested on: not listed separately
Test: Chronic treatment in diet-induced diabetes model, circulating glucose
Assay type: in vivo, mice
Conditions: 0.1 and 0.01 mg/ml in drinking water for two weeks; measured 3, 7 and 14 days; high-fat diet 8 weeks (FIG. 3)
Experimental: Diet-induced diabetes models were created by feeding with high-fat diet for 8 weeks. These mice developed glucose intolerance and hyperglycemia. 3Cl-R-PLP was dissolved in drinking water and given to mice for two weeks. Circulating glucose levels were measured 3, 7 and 14 days after 3Cl-R-PLP treatment.

Row | SMILES | circulating glucose levels
43 | CC(C)CN(Cc1cc(Cl)c2c(c1)OCCCO2)C(=O)[C@@H]1CCN(Cc2ccccc2)C1 [Example 15, (3R)-1-Benzyl-N-(9-chloro-3,4-dihydro-2H-1,5-benzodioxepin-7-ylmethyl)-N-isobutyl pyrrolidine-3-carboxamide] | effectively decreased the glucose levels

Tested on: not listed separately
Test: Chronic treatment in db/db mice, glucose levels
Assay type: in vivo
Conditions: 0.1 mg/mL in drinking water, 2 weeks, 10-week old db/db mice, fed and fasting conditions (FIG. 4)
Experimental: Db/db mice are commonly used as genetic models of type II diabetes. 10-week old db/db mice were treated with 3Cl-R-PLP (0.1 mg/mL in drinking water) or vehicle for 2 weeks.

Row | SMILES | glucose levels
44 | CC(C)CN(Cc1cc(Cl)c2c(c1)OCCCO2)C(=O)[C@@H]1CCN(Cc2ccccc2)C1 [Example 15, (3R)-1-Benzyl-N-(9-chloro-3,4-dihydro-2H-1,5-benzodioxepin-7-ylmethyl)-N-isobutyl pyrrolidine-3-carboxamide] | significantly decreased glucose levels
